{"source": "paper PMC10850913", "about": "(Heliyon, 2024)", "key": {"[1]": {"test": "In vitro drug release (dialysis tube) and kinetic models", "assay_type": "physicochemical", "settings": "PBS pH 5.5, 37 °C", "method": "We utilized a dialysis tube diffusion system to characterize the in vitro release of drugs from the formulations. This system provides a controlled environment to study the rate and extent of drug release from the formulations, reflecting their potential drug delivery behaviour. […] Tube was inserted into 50 mL of PBS (pH 5.5) with both ends tightened. In order to provide the sink conditions, PBS quantifying to 0.5 mL was added. Formulated medium was heated up to 37 ± 0.5 °C and stirred continuously at speed of 200 rpm. At predefined intervals, a 5 mL sample was taken, and an equal volume of new medium was introduced to keep the final volume, or sink condition, throughout experiment. All test samples were analyzed in triplicate manner and results are expressed as mean ± SD (n = 3).\nTo elucidate the kinetics and mechanisms governing drug release, we employed regression analysis to fit the experimental drug release data to various mathematical models. This analysis yielded coefficient constants that shed light on the order of release and the underlying mechanisms involved. (See Supportive Information for further details)."}, "[2]": {"test_system": "HCT116 cells", "test": "Cell cycle analysis (PI, flow cytometry)", "assay_type": "cell-based", "settings": "HCT116, IC50 concentration, 24 h", "method": "Following the incubation period, cells were harvested using trypsin and collected in a 1.5 ml tube. After a single wash with 500 μl of chilled PBS, approximately 1 x 10^6 cells were suspended in 100 μl of PBS. The cell suspension was gently vortexed to achieve a mono-dispersed cell suspension with minimal aggregation. Subsequently, the cells were fixed by transferring this suspension with a pipette into centrifuge tubes containing 900 μl of 70 % ethanol, placed on ice, and then incubated for a minimum of 2 h at 4 °C. The fixed cells could be stored in 70 % ethanol at 4 °C for several weeks.\nAfter fixation, the cells were centrifuged, and the pellet was suspended in 500 μl of Propidium Iodide (PI) staining solution (0.1 % (v/v) Triton X-100, 10 μg/ml PI, and 100 μg/ml DNase-free RNaseA in PBS). This suspension was kept in the dark at room temperature for 30 min or at 37 °C for 10 min. The samples were then acquired on a flow cytometer."}, "[3]": {"test_system": "HCT116 cells", "test": "Cellular apoptosis (Annexin V FITC/PI flow cytometry)", "assay_type": "cell-based", "settings": "HCT116, IC50 dose", "method": "HCT116 cell lines were seeded, cultured and subjected up to IC-50 dose of compound. Subsequent to treatment, cells underwent two washes with cold PBS. Resuspended cells were placed in 1X binding buffer at a concentration of 1x10^6 cells/ml, and the cells were divided into distinct groups, namely Unstained cells, Control group, Annexin only, PI only, and Treatment. Following the division into labelled tubes, Annexin V FITC and PI were introduced to their respective tubes. After vortexing and an incubation period of 15 min at room temperature, 1X Binding buffer was added to each tube. Subsequently, the samples were analyzed by a Flow Cytometer within 1 h."}, "[4]": {"test_system": "HCT116 cells", "test": "Mitochondrial membrane potential estimation (JC-1 flow cytometry)", "assay_type": "cell-based", "settings": "HCT-116, IC50 dose, 24 h", "method": "After the incubation period, the medium was aspirated, and cells were harvested using trypsin EDTA. The harvested cells were collected in a 1.5 ml tube and subjected to a single wash with 500 μl of chilled PBS. Subsequently, the cell pellets were resuspended in 400 μl of JC1 staining buffer containing 2 μM JC-1 dye. The samples were then promptly acquired using a Flow Cytometer within a 1-h timeframe."}, "[5]": {"test_system": "HCT116 cells", "test": "Wound healing (scratch) assay", "assay_type": "cell-based", "settings": "HCT-116, after 48 h, compared to control", "method": "The following day, a scratch was made in the cell monolayer using a 200 μl tip, and the cells were subsequently treated with the specified concentration of the formulation. Photographs were taken at various time intervals ranging from 0 to 48 h.\nThe gap area resulting from the scratch was analyzed using Image J Software (NCBI) and was further presented in a graphical format to illustrate the changes over time."}, "[6]": {"test_system": "erythrocytes", "test": "Haemolysis study", "assay_type": "cell-based, male albino rats", "settings": "rat erythrocytes, 100 μg/ml", "method": "For […] control identification, Triton X-100 treatment was employed. A 4 mL blood sample was drawn from male albino rats (220g) using a 23-gauge needle from the lateral saphenous vein of the animal (SPTM/2022/IAEC/18). The blood sample was then centrifuged at 1344×g for 10 min, and the plasma layer was carefully removed. The erythrocytes were washed three times with saline water and incubated with a 100 μg/mL concentration of the samples at 37 °C. Samples of 200 μL each were collected at 0, 1–10 h and centrifuged at 1344×g for 10 min.\nDuring the incubation, hemoglobin transformed into oxyhemoglobin. The obtained erythrocytes were observed under a microscope, and absorbance readings were taken at 570 nm for different concentrations of samples. All test samples were analyzed in triplicate, and the results are expressed as mean ± SD (n = 3). The percentage of hemolysis can be calculated using the following equation."}, "[7]": {"test_system": "platelets", "test": "Platelet aggregation study", "assay_type": "cell-based, rats", "settings": "blood incubated 2 h, Leishman-stained slides", "method": "A 1 mL blood sample was collected in heparinized tubes to prevent coagulation. […] The platelet aggregation was then examined both quantitatively and qualitatively. The qualitative analysis was conducted through microscopic examination of stained blood smears. Blood smears were prepared on clean glass slides after the 2-h incubation period. The slides were air-dried and subsequently stained with Leishman's stain for 5 min (Span Diagnostics, India). Following the staining, the slides were rinsed with distilled water, and a cover glass was placed on each slide for visualization under an optical microscope using an immersion objective. Images were captured using a digital camera.\nAs a control, whole blood incubated with an equivalent volume of PBS was used as the spontaneous control."}, "[8]": {"test": "Pharmacokinetics after intravenous administration", "assay_type": "in vivo, male Albino Wistar rats", "settings": "rats, 15 mg/kg intravenously", "method": "In accordance with the ethical approval (SPTM/2022/IAEC/18), nine male Albino Wistar rats weighing between 200 and 250 g were divided into three groups (n = 3) for proper conduct of pharmacokinetic experiments.\nBlood samples (500 μL) were collected from the rats' tail veins into heparinized tubes and cold centrifuged at 13,500 rpm for 10 min at 4 °C to separate plasma from blood. Subsequently, 100 μL of the separated plasma was mixed with 200 μL of acetonitrile, vortexed for 3 min to extract proteins, and cold centrifuged again at 13,500 rpm for 5 min at 4 °C.\nThe supernatant was then diluted with methanol, passed through a membrane filter, and subjected to analysis using a High-Performance Liquid Chromatography (HPLC) system. Isocratic elution was performed with a mobile phase consisting of a 20 mM ammonium acetate buffer and acetonitrile in a 60:40 ratio, at a flow rate of 1.0 mL/min, utilizing a C18 column."}, "[9]": {"test": "Tissue distribution", "assay_type": "in vivo", "settings": "male, albino Wistar, rat, intravenous, 15 mg/kg, rats, 8 h after administration", "method": "To assess the distribution and concentration of a medication within the body following delivery, tissue distribution studies were conducted. Twelve male albino Wistar rats were divided into two groups, each comprising six rats, following the approved institutional protocol by the Committee for the Purpose of Control and Supervision of Experiments on Animals (CPCSEA) (Ref. No.: SPTM/2022/IAEC/18).\nThe medications evaluated for tissue distribution were ENZ and the formulation ENZ-PLGA-PSAR-TPGS NPs. After administering the doses for 8 h, the rats were euthanized. Tissue samples, including liver, heart, kidney, lungs, brain, colon, small intestine, stomach, and rectum muscle tissues, were collected. Brain endothelial cells were obtained using a stereotaxic apparatus (USA, Model No. 51500). The collected tissue samples were homogenized in a cold physiological solution and filtered after rinsing with saline water (0.9 percent sodium chloride).\nSubsequently, the samples were analyzed using RP-UHPLC (Dionex Ultimate, 3000) to determine the distribution and concentration of the medications in various tissues."}, "[10]": {"test_system": "HT-29 cell line", "set-up": "method as in PMID 31149165", "settings": "1000 μg/mL, MTT assay; cited from earlier work"}, "[11]": {"test_system": "castration-resistant prostate cancer (CRPC)", "settings": "patients with CRPC; cited from earlier work"}, "[12]": {"settings": "cited from earlier work"}, "[13]": {"settings": "male, Albino Wistar, rat, plasma, iv"}}, "note": "Where two headings read alike, the source gives them in different places.", "data": [{"compound": "CNC(=O)c1ccc(N2C(=S)N(c3ccc(C#N)c(C(F)(F)F)c3)C(=O)C2(C)C)cc1F", "note": "[ENZ, Enzalutamide]", "values": [{"measurement": "pattern of release", "setting": "[1]", "result": "poor"}, {"measurement": "cells in G1 phase", "setting": "[2]", "result": 49.6, "unit": "%"}, {"measurement": "cells in G2 (G2/M) phase", "setting": "[2]", "result": 14.5, "unit": "%"}, {"measurement": "early apoptosis (lower right quadrant)", "setting": "[3]", "result": 2.7, "unit": "%"}, {"measurement": "late apoptosis (upper right quadrant)", "setting": "[3]", "result": 10.1, "unit": "%"}, {"measurement": "live cells (lower left quadrant)", "setting": "[3]", "result": 72.6, "unit": "%"}, {"measurement": "High MMP cells", "setting": "[4]", "result": 3.5, "unit": "%"}, {"measurement": "live cells in MMP assay", "setting": "[4]", "result": 52.7, "unit": "%"}, {"measurement": "low MMP cells", "setting": "[4]", "result": 41.7, "unit": "%"}, {"measurement": "inhibition of wound area", "setting": "[5]", "result": "inhibited the wound area"}, {"measurement": "lysis of RBCs (microscopy)", "setting": "[6]", "result": "no occurrence of eruption or lysis of the RBCs"}, {"measurement": "platelet aggregation", "setting": "[7]", "result": "no aggregation"}, {"measurement": "MRT", "setting": "[8]; [13]", "result": "5.34 ± 2.43", "unit": "h"}, {"measurement": "Vd", "setting": "[8]; [13]", "result": "1.4 ± 0.00356", "unit": "L"}, {"measurement": "clearance", "setting": "[8]; [13]", "result": 1.51, "unit": "mL/min"}, {"measurement": "C", "setting": "[8]", "result": "226.24 ± 31.2", "unit": "ng/mL"}, {"measurement": "concentration at 8 h", "setting": "[9]; brain, read-out: Concentration in Brain", "result": "0.7 ± 0.1", "unit": "ng/mL"}, {"measurement": "concentration at 8 h", "setting": "[9]; colon, read-out: Concentration in Colon", "result": "0.95 ± 0.5", "unit": "ng/mL"}, {"measurement": "concentration at 8 h", "setting": "[9]; heart, read-out: Concentration in Heart", "result": "0.8 ± 1.1", "unit": "ng/mL"}, {"measurement": "concentration at 8 h", "setting": "[9]; kidney, read-out: Concentration in Kidney", "result": "0.57 ± 0.21", "unit": "ng/mL"}, {"measurement": "concentration at 8 h", "setting": "[9]; liver, read-out: Concentration in Liver", "result": "1.2 ± 0.13", "unit": "ng/mL"}, {"measurement": "concentration at 8 h", "setting": "[9]; lungs, read-out: Concentration in Lungs", "result": "0.5 ± 0.102", "unit": "ng/mL"}, {"measurement": "concentration at 8 h", "setting": "[9]; rectum, read-out: Concentration in Rectum", "result": "3.07 ± 0.4", "unit": "ng/mL"}, {"measurement": "concentration at 8 h", "setting": "[9]; spleen, read-out: Concentration in Spleen", "result": "0.3 ± 0.1", "unit": "ng/mL"}, {"measurement": "concentration at 8 h", "setting": "[9]; stomach, read-out: Concentration in Stomach", "result": "0.21 ± 0.12", "unit": "ng/mL"}, {"measurement": "cell viability", "setting": "[10]", "result": "significant decrease"}, {"measurement": "extension of survival", "setting": "[11]", "result": 4.8, "unit": "months"}, {"measurement": "pKa", "setting": "[12]", "result": 4.16}]}]}
